In patent US7939662B2, “Amorphous ziprasidone hydrochloride (5-[2-[4-(1,2-benzisothiazol-3-yl)-1-piperazinyl]ethyl]-6-chloro-1,3-dihydro-2H-indol-2-one hydrochloride) and processes to produce the same” (Apotex Pharmachem Inc., priority 2004, dated 2011):

Legend:
aqueous solubility = format: physicochemical; conditions: relative to those of the prior art; no test described
[1] = as stated in U.S. Pat. No. 5,312,925; cited from earlier work
[2] = crystalline monohydrate form; background statement; cited from earlier work

water solubility relative to the prior art forms (aqueous solubility)	SMILES	hygroscopic stability [1]	aqueous solubility [2]
better water solubility	Cl.O=C1Cc2cc(CCN3CCN(c4nsc5ccccc45)CC3)c(Cl)cc2N1 [amorphous ziprasidone hydrochloride, 5-[2-[4-(1,2-benzisothiazol-3-yl)-1-piperazinyl]ethyl]-6-chloro-1,3-dihydro-2H-indol-2-one hydrochloride]	–	–
–	Cl.O=C1Cc2cc(CCN3CCN(c4nsc5ccccc45)CC3)c(Cl)cc2N1 [ziprasidone hydrochloride monohydrate, 5-[2-[4-(1,2-benzisothiazol-3-yl)-1-piperazinyl]ethyl]-6-chloro-1,3-dihydro-2H-indol-2-one hydrochloride]	hygroscopically stable	very low
